Results taken from PubChem BioAssay (NCI).
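Compound exposure: 48 hours, 5 concentrations, 96-well plates. At the GI50, growth is halved. At the TGI there is no net growth.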

Key:
Experiment in all cases: inhibition of tumour cell growth, NCI panel, 48 h
HCT-116 colon = system: HCT-116 colon
M14 melanoma = system: M14 melanoma
SK-MEL-2 melanoma = system: SK-MEL-2 melanoma
MDA-MB-231 breast = system: MDA-MB-231 breast
RXF 393 renal = system: RXF 393 renal
PC-3 prostate = system: PC-3 prostate
SF-268 CNS = system: SF-268 CNS
HT29 colon = system: HT29 colon
HCC-2998 colon = system: HCC-2998 colon
A498 renal = system: A498 renal

| Compound | GI50 (HCT-116 colon) | TGI (HCT-116 colon) | GI50 (M14 melanoma) | TGI (M14 melanoma) | GI50 (SK-MEL-2 melanoma) | TGI (SK-MEL-2 melanoma) | GI50 (MDA-MB-231 breast) | TGI (MDA-MB-231 breast) | GI50 (RXF 393 renal) | TGI (RXF 393 renal) | GI50 (PC-3 prostate) | TGI (PC-3 prostate) | GI50 (SF-268 CNS) | TGI (SF-268 CNS) | GI50 (HT29 colon) | TGI (HT29 colon) | GI50 (HCC-2998 colon) | TGI (HCC-2998 colon) | GI50 (A498 renal) | TGI (A498 renal) |
| --- | --- | --- | --- | --- | --- | --- | --- | --- | --- | --- | --- | --- | --- | --- | --- | --- | --- | --- | --- | --- |
| COc1ccc(-c2ccc(/C=N/n3c(COc4ccccc4Cl)nn(CN4CCN(C)CC4)c3=S)o2)c([N+](=O)[O-])c1 | 16.1 µM | 29.8 µM | 17.7 µM | 34.2 µM | 31.6 µM | 83.3 µM | 14.6 µM | 37.5 µM | 10.4 µM | 25 µM | 15.3 µM | 58.2 µM | 17.5 µM | 45.1 µM | 23.5 µM | 55.9 µM | 14.5 µM | 27.7 µM | – | – |
| CCOc1ccc([C@@H]2[C@@H](Oc3ccccc3)C(=O)N2c2cc(OC)c(OC)c(OC)c2)cc1 | 0.0437 µM | 3.88 µM | 0.04 µM | > 100 µM | 0.097 µM | > 100 µM | 0.177 µM | > 100 µM | 0.0446 µM | > 100 µM | 0.0706 µM | > 100 µM | 0.0975 µM | > 100 µM | 0.0491 µM | 0.522 µM | 0.468 µM | > 100 µM | 0.0205 µM | 0.0853 µM |
| NC(N)=NS(=O)(=O)c1ccc(NCc2c3ccccc3nc3ccccc23)cc1 | – | 56.2 µM | – | 64.7 µM | – | > 67 µM | – | > 100 µM | – | 42.1 µM | – | > 100 µM | – | 23.1 µM | – | > 100 µM | – | 66.1 µM | – | 12 µM |
| COc1ccccc1-n1c(-c2cc(O)ccc2C)cn2c3c(=O)[nH]c(=O)n(C)c3nc12 | 21.1 µM | > 100 µM | 90.8 µM | > 100 µM | > 100 µM | > 100 µM | 3.06 µM | > 100 µM | 0.872 µM | 4.11 µM | > 100 µM | > 100 µM | 5.07 µM | > 100 µM | 1.62 µM | 8.12 µM | > 100 µM | > 100 µM | 25 µM | > 100 µM |
| CC(=O)c1c(C(F)(F)F)n([O-])c2ccc(Cl)cc2[n+]1=O | 0.662 µM | – | 1.78 µM | 5.05 µM | 3.18 µM | 12.5 µM | 1.3 µM | 3.27 µM | 5.11 µM | 25.4 µM | – | 2.79 µM | 1.35 µM | 8.78 µM | 1.4 µM | > 100 µM | 1.03 µM | 2.41 µM | 1.33 µM | 2.88 µM |
| NS(=O)(=O)c1cc2c(cc1Cl)NC(Cc1ccccc1)NS2(=O)=O (configuration not stated) | – | > 100 µM | – | > 100 µM | – | > 100 µM | – | > 100 µM | – | > 100 µM | – | > 100 µM | – | > 100 µM | – | > 100 µM | – | > 100 µM | – | > 100 µM |
| Cc1ccc(C2NC(=S)NC3=C2CCOc2c3ccc3ccccc23)cc1 (configuration not stated) | > 100 µM | > 100 µM | 79 µM | > 100 µM | > 100 µM | > 100 µM | 26.3 µM | > 100 µM | 4.83 µM | > 100 µM | 22.2 µM | > 100 µM | 96 µM | > 100 µM | 8 µM | > 100 µM | 10.8 µM | > 100 µM | – | – |
| CCC(C)n1cc(C)c2c(C(=O)NCc3c(C)cc(C)[nH]c3=O)cc(Br)cc21 (configuration not stated) | 48 µM | > 100 µM | 35.2 µM | > 100 µM | 35.9 µM | > 100 µM | 45 µM | > 100 µM | 27.6 µM | > 100 µM | 19.1 µM | 66.9 µM | 72.3 µM | > 100 µM | 41.5 µM | > 100 µM | 52.4 µM | > 100 µM | 38.4 µM | > 100 µM |
| CN1CCCNc2c(c(=O)c2=O)NCCCN(C)CCCNc2c(c(=O)c2=O)NCCCN(C)CCCNc2c(c(=O)c2=O)NCCCN(C)CCCNc2c(c(=O)c2=O)NCCCN(C)CCCNc2c(c(=O)c2=O)NCCCN(C)CCCNc2c(c(=O)c2=O)NCCCN(C)CCCNc2c(c(=O)c2=O)NCCC1 | 5.81 µM | 17.4 µM | 6.86 µM | 18.6 µM | 3.12 µM | 31.6 µM | 4.42 µM | 19.1 µM | 2.54 µM | 12.7 µM | 7.02 µM | 22.2 µM | 1.82 µM | 18.3 µM | 9.87 µM | > 50 µM | 7.18 µM | 22.1 µM | 2.72 µM | 11.1 µM |
| COc1ccc(Nn2c(SCC(=O)Nc3nc(-c4ccc(Cl)cc4)cs3)nc(C)c2C)cc1 | 2.12 µM | 14.1 µM | 3.02 µM | > 100 µM | 15.7 µM | 66.8 µM | 8.37 µM | > 100 µM | 3.53 µM | 9.64 µM | 2.65 µM | > 100 µM | 2.81 µM | > 100 µM | 4.61 µM | 50.4 µM | 3.07 µM | 9.91 µM | 2.22 µM | 56.5 µM |
| CC(C)CCOc1ccc(-c2n[nH]c(C(F)(F)F)c2-c2cncc(C#N)c2)c(O)c1 | 2.61 µM | 10.5 µM | 2.49 µM | 9.13 µM | 1.75 µM | 5.3 µM | 2.43 µM | 6.43 µM | 1.96 µM | 6.15 µM | 2.12 µM | > 100 µM | 4.18 µM | > 100 µM | 2.92 µM | 14.1 µM | 3.05 µM | 24.3 µM | 1.75 µM | 6.64 µM |
| CCN(CC)c1cc(/C=C/c2ccc(OC)c(OC)c2)nc2cc(F)c(F)cc12 | 5.35 µM | 17.5 µM | 26.3 µM | > 100 µM | 1.83 µM | 3.45 µM | 2.3 µM | 7.47 µM | 1.8 µM | 4.01 µM | > 100 µM | > 100 µM | 3.15 µM | 11.4 µM | – | – | 70.6 µM | > 100 µM | 1.95 µM | 6.2 µM |
